The source of these data is patent US20210070735A1, “RIP1 INHIBITORY COMPOUNDS AND METHODS FOR MAKING AND USING THE SAME” (Rigel Pharmaceuticals, Inc., priority 2019, published 2021).

The target of one assay is T1, RIPK1 (Homo sapiens, UniProt Q13546).
T1 sequence (Q13546 1-671): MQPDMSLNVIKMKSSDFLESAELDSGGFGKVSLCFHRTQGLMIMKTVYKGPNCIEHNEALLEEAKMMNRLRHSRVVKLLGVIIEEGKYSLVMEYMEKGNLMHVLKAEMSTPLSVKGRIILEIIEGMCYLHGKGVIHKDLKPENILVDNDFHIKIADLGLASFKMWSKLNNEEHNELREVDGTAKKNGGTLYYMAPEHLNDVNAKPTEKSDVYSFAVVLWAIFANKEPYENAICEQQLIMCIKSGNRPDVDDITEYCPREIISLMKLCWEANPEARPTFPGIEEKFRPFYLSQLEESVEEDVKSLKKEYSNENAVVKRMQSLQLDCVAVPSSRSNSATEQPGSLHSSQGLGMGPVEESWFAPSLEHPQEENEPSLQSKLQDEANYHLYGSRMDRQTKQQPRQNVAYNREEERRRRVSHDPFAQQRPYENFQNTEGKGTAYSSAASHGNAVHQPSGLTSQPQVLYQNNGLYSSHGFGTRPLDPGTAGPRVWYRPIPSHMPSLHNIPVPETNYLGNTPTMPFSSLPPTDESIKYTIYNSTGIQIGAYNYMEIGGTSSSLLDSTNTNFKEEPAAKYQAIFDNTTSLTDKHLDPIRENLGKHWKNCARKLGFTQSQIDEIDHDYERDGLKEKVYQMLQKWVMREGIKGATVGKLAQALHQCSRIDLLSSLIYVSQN
Briefly: RIPK1 ADP-Glo biochemical kinase assay. The note with it: 30 min at 30° C. As for the experimental part: The final reaction volume was 5.0 μl.
Adding 5 μl of ADP-Glo™ terminated the reaction.

The target in the next assay is T2, murine RIP1 (Mus musculus, UniProt Q60855).
T2 construct: U937 and L929 cells were obtained from the American Type Culture Collection; host or cells: L929
T2 sequence (Q60855 1-656): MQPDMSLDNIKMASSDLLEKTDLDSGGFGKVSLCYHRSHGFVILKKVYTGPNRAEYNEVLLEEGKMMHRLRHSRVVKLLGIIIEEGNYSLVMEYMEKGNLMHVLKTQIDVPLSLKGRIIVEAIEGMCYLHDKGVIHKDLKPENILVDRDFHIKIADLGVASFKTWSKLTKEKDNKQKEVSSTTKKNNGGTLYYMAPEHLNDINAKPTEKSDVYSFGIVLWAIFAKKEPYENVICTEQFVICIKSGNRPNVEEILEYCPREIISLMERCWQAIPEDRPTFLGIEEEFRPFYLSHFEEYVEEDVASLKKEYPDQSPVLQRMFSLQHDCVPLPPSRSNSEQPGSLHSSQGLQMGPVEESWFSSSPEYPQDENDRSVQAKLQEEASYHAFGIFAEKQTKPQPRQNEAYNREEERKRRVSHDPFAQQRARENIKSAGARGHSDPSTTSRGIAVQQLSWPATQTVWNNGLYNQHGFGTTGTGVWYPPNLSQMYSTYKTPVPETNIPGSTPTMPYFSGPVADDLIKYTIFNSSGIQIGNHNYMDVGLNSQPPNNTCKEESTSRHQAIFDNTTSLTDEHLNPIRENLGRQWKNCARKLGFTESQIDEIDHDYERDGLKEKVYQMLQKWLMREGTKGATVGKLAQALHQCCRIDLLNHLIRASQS
Briefly: L929 cell necroptosis assay (TNFa + zVAD, CellTiter-Glo). In kind it is cell-based. As for the experimental part: (§1) In this example, U937 and L929 cells were exposed to compounds of the present disclosure and a cell necroptosis assay was conducted to evaluate the compounds' activity against human RIP1 and murine RIP1.
(§2) U937 and L929 cells were obtained from the American Type Culture Collection (Manassa, Va., USA). Both cells were maintained in logarithmic growth phase in complete RPMI 1640 media (Sigma, ST Louis, Mo., USA) supplemented with 10% fetal bovine serum (Sigma, ST Louis, Mo., USA) at 37° C. with 5% CO2. For necroptosis assay, L929 cells were plated for 18 h in 100 µL/well medium at 10K cells/well in Costar 96-well black clear-bottom plates (Fisher Scientific, Hampton, N.H., USA); U937 cells were plated on the day of the assay in 50 µL/well medium containing 60 uM zVAD-fmk (Lonza, Basel, Switzerland) at 50K cells/well. Medium from L929 cells were removed from the 96-well plates and replaced with 50 µL/well new medium containing 40 uM zVAD-fmk. Each compound of the present disclosure evaluated in this example was serially diluted in DMSO from 2.5 mM in 4-fold dilutions, and then diluted 1:125 in complete medium. 50 µL/well 2× of the compound was then added to the cells in the plates. The cells were pre-incubated with the compound for 1 hour at 37° C. with 5% CO2 and before addition of 10 µL/well 11×TNFa (Peprotech, Rocky Hill, N.J., USA) to give a final concentration of 2 ng/mL for TNFa. The relative amount of necroptosis cells was determined by luminescent using a Wallac Victor2 Luminometer (PerkinElmer, Waltham, Mass., USA) and a CellTiter-Glo® Luminescent Cell Viability Reagent Assay (Promega, Madison, Wis., USA) added per manufacturer instructions after 18 hours of TNFa stimulation at 37° C. with 5% CO2.Results from this example are summarized in Table 2. This example establishes that embodiments of the compounds described herein have unexpectedly potent activity against human RIP1 and murine RIP1, which allows their assessment in in vivo mouse models of disease.

In another assay the target is T3, human RIP1 (Homo sapiens, UniProt Q13546).
T3 construct: U937 and L929 cells were obtained from the American Type Culture Collection; host or cells: U937
T3 sequence (Q13546 1-671): T1 sequence (Q13546 1-671)
The assay can be described thus: U937 cell necroptosis assay (TNFa + zVAD, CellTiter-Glo). Format: cell-based. The note with it: U937 Zvad TNF CTG Recovery, U937 cells, TNFa 2 ng/mL + zVAD-fmk, 18 hours. As for the experimental part:
as §1, §2

SMILES strings stand for the structures. pIC50: −log10 of the molar value.

Consider `[2H]C([2H])([2H])N1C(=O)C(NC(=O)c2n[nH]c(Cc3ccccc3)n2)CCc2ccc(N3CC4(CCOCC4)C3)cc21` (racemic) [Compound I-15, (±)-5-Benzyl-N-(1-(methyl-d3)-2-oxo-8-(7-oxa-2-azaspiro[3.5]nonan-2-yl)-2,3,4,5-tetrahydro-1H-benzo[b]azepin-3-yl)-1H-1,2,4-triazole-3-carboxamide], for which the pIC50 against RIPK1 is 6.97; on murine RIP1 it was 6.59; on human RIP1, 8.10.
Take `CN1C(=O)C(NC(=O)c2n[nH]c(Cc3ccccc3)n2)CCc2ccc(C#CC3(O)COC3)cc21` (racemic) [Compound I-16, (±)-5-Benzyl-N-(8-((3-hydroxyoxetan-3-yl)ethynyl)-1-methyl-2-oxo-2,3,4,5-tetrahydro-1H-benzo[b]azepin-3-yl)-1H-1,2,4-triazole-3-carboxamide]: the pIC50 against RIPK1 is 6.64; at murine RIP1 it was 6.82; on human RIP1, 8.08.
The matching figures for `CN1C(=O)C(NC(=O)c2n[nH]c(Cc3ccccc3)n2)CCc2ccc(C#Cc3ccncc3)cc21` (racemic) [Compound I-19, (±)-5-Benzyl-N-(1-methyl-2-oxo-8-(pyridin-4-ylethynyl)-2,3,4,5-tetrahydro-1H-benzo[b]azepin-3-yl)-1H-1,2,4-triazole-3-carboxamide]: 7.37, 8.00 and 8.47.
Take `CN1C(=O)C(NC(=O)c2n[nH]c(Cc3ccccc3)n2)CCc2ccc(C#Cc3ccccn3)cc21` (racemic) [Compound I-20, (±)-5-Benzyl-N-(1-methyl-2-oxo-8-(pyridin-2-ylethynyl)-2,3,4,5-tetrahydro-1H-benzo[b]azepin-3-yl)-1H-1,2,4-triazole-3-carboxamide]: the pIC50 is 7.43 at RIPK1, 8.07 at murine RIP1 and 8.42 on human RIP1.
Regarding `CN1C(=O)C(NC(=O)n2cc(Cc3ccccc3)cn2)CCc2ccc(N3CC4(CCOCC4)C3)cc21` (racemic) [Compound I-23, (±)-4-Benzyl-N-(1-methyl-2-oxo-8-(7-oxa-2-azaspiro[3.5]nonan-2-yl)-2,3,4,5-tetrahydro-1H-benzo[b]azepin-3-yl)-1H-pyrazole-1-carboxamide], the negative logarithm of the IC50 (pIC50) on RIPK1 was 7.21; at murine RIP1, 6.67; on human RIP1, 8.77.
The matching figures for `CN1C(=O)C(NC(=O)c2cc(Oc3ccccc3)ccn2)CCc2ccc(C#CC(C)(C)O)cc21` (racemic) [Compound I-24, (±)-N-(8-(3-Hydroxy-3-methylbut-1-yn-1-yl)-1-methyl-2-oxo-2,3,4,5-tetrahydro-1H-benzo[b]azepin-3-yl)-4-phenoxypicolinamide]: 7.24, 7.89 and 8.72.
In the case of `CN1C(=O)C(NC(=O)c2cc(Oc3ccccc3)ccn2)CCc2ccc(CN3CCN(c4ccncc4)CC3)cc21` (racemic) [Compound I-25, (±)-N-(1-Methyl-2-oxo-8-((4-(pyridin-4-yl)piperazin-1-yl)methyl)-2,3,4,5-tetrahydro-1H-benzo[b]azepin-3-yl)-4-phenoxypicolinamide], the pIC50 against RIPK1 is 7.16; at murine RIP1, 4.43; at human RIP1, 6.56.
Turning to `CN1C(=O)C(NC(=O)c2cc(Oc3ccccc3)ccn2)CCc2ccc(N3CCC4(CCOCC4)CC3)cc21` (racemic) [Compound I-27, (±)-N-(1-Methyl-2-oxo-8-(3-oxa-9-azaspiro[5.5]undecan-9-yl)-2,3,4,5-tetrahydro-1H-benzo[b]azepin-3-yl)-4-phenoxypicolinamide], the pIC50 was 7.33 at RIPK1, 6.19 on murine RIP1 and 8.32 at human RIP1.
For `[2H]C([2H])([2H])N1C(=O)C(NC(=O)c2cc(Oc3ccccc3)ccn2)CCc2ccc(C#CC(C)(C)O)cc21` (racemic) [Compound I-28, (±)-N-(8-(3-Hydroxy-3-methylbut-1-yn-1-yl)-1-(methyl-d)-2-oxo-2,3,4,5-tetrahydro-1H-benzo[b]azepin-3-yl)-4-phenoxypicolinamide], the figures for the pIC50 on RIPK1, on murine RIP1 and at human RIP1 were 7.49, 7.68 and 8.62, respectively.
On the same counts, the results for `[2H]C([2H])([2H])N1C(=O)C(NC(=O)c2cc(Oc3ccccc3)ccn2)CCc2ccc(N3CC4(CCOCC4)C3)cc21` (racemic) [Compound I-29, (±)-N-(1-(Methyl-d3)-2-oxo-8-(7-oxa-2-azaspiro[3.5]nonan-2-yl)-2,3,4,5-tetrahydro-1H-benzo[b]azepin-3-yl)-4-phenoxypicolinamide] are 7.38, 5.85 and 8.20.
On to `CN1C(=O)C(NC(=O)c2cc(Oc3ccccc3)ccn2)CCc2ccc(N3CC4(CCCCC4)C3)cc21` (racemic) [Compound I-30, (±)-N-(1-Methyl-2-oxo-8-(2-azaspiro[3.5]nonan-2-yl)-2,3,4,5-tetrahydro-1H-benzo[b]azepin-3-yl)-4-phenoxypicolinamide], for which the pIC50 was 6.22 against RIPK1, 5.93 on murine RIP1 and 7.79 at human RIP1.
As to `CN1C(=O)C(NC(=O)c2cc(Oc3ccccc3)ccn2)CCc2ccc(N3CC4(CCOCC4)C3)cc21` (racemic) [Compound I-31, (±)-N-(1-Methyl-2-oxo-8-(7-oxa-2-azaspiro[3.5]nonan-2-yl)-2,3,4,5-tetrahydro-1H-benzo[b]azepin-3-yl)-4-phenoxypicolinamide], the pIC50 against RIPK1 is 7.27; on murine RIP1, 5.77; at human RIP1, 7.75.
The matching figures for `CN1C(=O)[C@@H](NC(=O)n2cc(Cc3ccc(F)cc3)cn2)CCc2ccc(C#CC3(O)COC3)cc21` [Compound I-1, (S)-4-(4-fluorobenzyl)-N-(8-((3-hydroxyoxetan-3-yl)ethynyl)-1-methyl-2-oxo-2,3,4,5-tetrahydro-1H-benzo[b]azepin-3-yl)-1H-pyrazole-1-carboxamide]: 7.63, 8.62 and 9.52.
On the same counts, the results for `CN1C(=O)[C@@H](NC(=O)c2cc(Oc3ccccc3)ccn2)CCc2ccc(-c3ccc(C#CC(C)(C)O)nc3)cc21` [Compound I-2, (S)—N-(8-(6-(3-hydroxy-3-methylbut-1-yn-1-yl)pyridin-3-yl)-1-methyl-2-oxo-2,3,4,5-tetrahydro-1H-benzo[b]azepin-3-yl)-4-phenoxypicolinamide] are 7.48, 6.85 and 8.70.
